Assay [1] in a line: Inhibition of NADH-ubiquinone oxidoreductase assessed by NADH oxidase activity in beef heart submitochondrial particles. Also on record: species or system Bos taurus.
For the next assay, the system named is HepG2. The assay is described as follows: Antitumor activity against human HepG2 cells after 24 hrs by MTT assay. The class given is functional. As to conditions: HepG2, 24 h, read-out: ED50 (the source's name). (Formazan colour is commonly taken as a measure of viable cells.)
A further assay relates to MCF7. Description: Antitumor activity against human MCF7 cells after 24 hrs by MTT assay. As to conditions: MCF7, 24 h, read-out: ED50 (the source's name). Type of assay: functional.
A short description of assay [2]: Antitumor activity against doxorubucin-resistant human MES-SA/Dx5 cells by MTT assay after 24 hrs. Type of assay: functional. As to conditions: MES-SA/Dx5, 24 h, read-out: ED50 (the source's name).
Assay [3] is described as follows: Antitumor activity against human MES-SA cells after 24 hrs by MTT assay. Type of assay: functional. As to conditions: read-out: ED50 (the source's name).
A further assay relates to A549. The assay is described as follows: Antitumor activity against human A549 cells after 24 hrs by MTT assay. Type of assay: functional. Particulars: A549, 24 h, read-out: ED50 (the source's name).
The test system of a further assay is HT-29. Description: Antitumor activity against human HT29 cells after 24 hrs by MTT assay. The class given is functional. Particulars: HT-29, 24 h, read-out: ED50 (the source's name).

6 compounds from ChEMBL document CHEMBL1143664, “New antitumoral acetogenin 'Guanacone type' derivatives: isolation and bioactivity. Molecular dynamics simulation of diacetyl-guanacone” (Bioorg Med Chem, 2007) can be followed below.

The structures appear in SMILES notation.

The term IC50 denotes the concentration that gives 50% inhibition. A higher IC50 goes with lower potency. As for `CCCCCCCCCC[C@H](OC(C)=O)[C@H]1CC[C@H]([C@H]2CC[C@H]([C@H](O)CCCCC(=O)CCCCCCCC3=C[C@H](C)OC3=O)O2)O1`, in assay [1], the 50% inhibitory concentration (IC50) was 0.0034 µM. Further, the EC50 in the assay with HepG2 was 18 µM; with MCF7 it was 50 µM; in assay [2] it was 83 µM; in assay [3] it was 43 µM; with A549 it was 192 µM; in the assay on HT-29, 154 µM.

Turning to `CCCCCCCCCC[C@H](O)[C@H]1CC[C@H]([C@H]2CC[C@H]([C@@H](CCCCC(=O)CCCCCCCC3=C[C@H](C)OC3=O)OC(C)=O)O2)O1`, 0.0028 µM corresponded to half-maximal inhibition in assay [1] (IC50). Further, the EC50 with HepG2 is 51 µM; with MCF7, 66 µM; in assay [2], 97 µM; in assay [3], 76 µM; in the assay on A549, 101 µM; in the assay on HT-29, 169 µM.

For the compound `CCCCCCCCCC[C@H](OC(C)=O)[C@H]1CC[C@H]([C@H]2CC[C@H]([C@@H](CCCCC(=O)CCCCCCCC3=C[C@H](C)OC3=O)OC(C)=O)O2)O1`, the IC50 in assay [1] was found to be 0.0004 µM. Also, the EC50 in the assay with HepG2 was 9 µM; in the assay on MCF7, 29 µM; in assay [2] it was 56 µM; in assay [3], 28 µM; with A549, 60 µM; in the assay with HT-29, 195 µM.

With `COc1cccc2c1C(=O)c1c(O)c3c(c(O)c1C2=O)C[C@@](O)(C(=O)CO)C[C@@H]3O[C@H]1C[C@H](N)[C@H](O)[C@H](C)O1` [DOXORUBICIN], the EC50 with HepG2 is 102 µM; with MCF7 it was 8 µM; in assay [2], over 500 µM; in assay [3], 173 µM; in the assay on A549, 152 µM; with HT-29 it was 274 µM.

As for `CCCCCCCCCC[C@H](O)[C@H]1CC[C@H]([C@H]2CC[C@H]([C@H](O)CCCCC(=O)CCCCCCCC3=C[C@H](C)OC3=O)O2)O1` [GUANACONE], in assay [1], the 50% inhibitory concentration (IC50) is 0.0012 µM. The EC50 in the assay with HepG2 was 11 µM; in the assay with MCF7 it was 39 µM; in assay [2], 52 µM; in assay [3], 22 µM; in the assay with A549 it was 148 µM; in the assay with HT-29 it was 71 µM.

Compound `C=C(C)[C@H]1Cc2c(ccc3c2O[C@@H]2COc4cc(OC)c(OC)cc4[C@@H]2C3=O)O1` [ROTENONE] gave a half-maximal inhibitory concentration (IC50) in assay [1] of 0.0051 µM. For the same compound, the EC50 worked out at 15 µM in the assay with HepG2; 161 µM in the assay with MCF7; 214 µM in assay [2]; 147 µM in assay [3]; 26 µM in the assay on A549; 202 µM in the assay on HT-29.
